Laboratory results: US20110166128A1, “Diaryldiazepine Prodrugs for the Treatment of Neurological and Psychological Disorders” (priority 2010, published 2011)

Experiment: physchem
Description: At pH 4 and 5, 0.1 M citrate buffers were used, while for pH 6, 7 and 8 a set of 0.1M phosphate buffers were used. Each buffer also contained 0.2 M NaCl. No cosolvents or other potentially solubilizing components were included. Buffer preparations were subdivided in order to individually test the solubility of only one material in a given buffer sample.

variation in solubility across the pH range studied: less than 2 fold
solubility (pH 4, aqueous buffer, thermodynamic from solid): 0.1 to 0.2 ng/mL
Compound: CCCCCCCCCCCCC(C)(C)C(=O)OC[N+]1(C)CCN(C2=Nc3ccccc3Nc3sc(C)cc32)CC1.[I-] [Compound 18, 1-(((2,2-dimethyltetradecanoyl)oxy)methyl)-1-methyl-4-(2-methyl-10H-benzo[b]thieno[2,3-e][1,4]diazepin-4-yl)piperazin-1-ium iodide]
